Data from patent US20260325605A1, “INHIBITORS” (Zealand Pharma A/S, priority 2022, published 2026).

Assays:
[1] = tested on: KLH-induced DTH ear swelling in rats; experiment: Example 11: Minimal effective dose in KLH-induced DTH model; assay type: in vivo, rat (Lewis)
Description: (§1) Healthy male Lewis rats aged 8-9 weeks were immunized on day 0 with 200 μL keyhole limpet hemocyanin (KLH) (from Sigma, cat.no. H7017) (4 mg/mL) emulsified in complete Freund's adjuvant (CFA) (Difco, cat.no. 263810) subcutaneously (SC) at the base of the tail.
To elicit a KLH-specific T cell-mediated local inflammation, rats were challenged intradermally at indicated timepoints (days 7, 9, 11 or 13 post-immunisation) with 40 μL KLH/NaCl 0.9% (2 mg/mL) in the left ear. Ear edemas were measured after 24-48 hrs and the right ear that was left untreated served as control. A schematic overview of the protocol is depicted in FIG. 1. […]
This study was conducted as described in example 8 with the difference that the rats were only challenged intradermally at days 7 or 11 post-immunisation (i.e. day 1 and day 5 after treatment) with 40 μL KLH/NaCl 0.9% (2 mg/mL) in the left ear. A schematic overview of the protocol is depicted in FIG. 5.
The doses of Kv1.3 inhibitor treatment able to reduce the DTH ear swelling response was investigated by comparing the response in rats (n=8/group) treated with vehicle to that of rats treated with different doses of peptide 100. Vehicle or peptide 100 dissolved in vehicle was administered SC (2 mL/kg) on day 6. The test dose of Kv1.3 inhibitor was 1, 3, 10, 30 or 100 nmol/kg. Test vehicle was 10 mM phosphate, 0.8% w/v NaCl, 0.05% w/v polysorbate20, pH 6.
As readout of efficacy, the thickness of the induced ear 24 hrs and 48 hrs after respective ear challenge was measured and compared to vehicle control. Ear thickness 24 hrs after challenge is shown in Table 15 and FIG. 8 and ear thickness 48 hrs after challenge is shown in Table 16 and FIG. 9.

[2] = tested on: KLH-induced DTH ear swelling in rats; experiment: Example 8: Long-lasting effect in KLH-induced delayed type hypersensitivity (DTH) model; assay type: in vivo, rat (Lewis)
Description: The animal care facility employed is accredited by AAALAC. Female Lewis rats, weighing 180±20 g at delivery were used for this study. Following arrival in the animal facility, all animals were subjected to a general health evaluation. An acclimation period of 1 day was allowed before the beginning of the study.
The animal room was maintained at a controlled temperature of 20-24° C. and a relative humidity of 30-70%. A controlled lighting system assured 12 hours light, 12 hours dark per day to the animals. Adequate ventilation of 15 air changes per hour was maintained.
This study was performed to investigate the length of effect of a Kv1.3 inhibitor (peptide 100) on ear inflammation in the KLH-induced DTH model in rats.
as §1
To elicit a KLH-specific T cell-mediated local inflammation, rats were challenged intradermally at indicated timepoints (days 7, 9, 11 or 13 post-immunisation) with 40 μL KLH/NaCl 0.9% (2 mg/mL) in the left ear. Ear edemas were measured after 24-48 hrs and the right ear that was left untreated served as control. A schematic overview of the protocol is depicted in FIG. 1.
The ability of Kv1.3 inhibitor treatment to reduce the DTH ear swelling response was investigated by comparing the response in rats (n=8/group) treated with vehicle to that of rats treated with peptide 100. Vehicle or peptide 100 dissolved in vehicle was administered SC (2 mL/kg) on day 6. The test dose of Kv1.3 inhibitor was 300 nmol/kg. Test vehicle was 10 mM phosphate, 0.8% w/v NaCl, 0.05% w/v polysorbate20, pH 6. Cyclosporine A (CsA) was included as positive study control.
As readout of efficacy, the thickness of the induced ear 24 hrs and 48 hrs after respective ear challenge was measured and compared to vehicle control. Ear thickness 24 hrs after challenge is shown in Table 10 and FIG. 2 and ear thickness 48 hrs after challenge is shown in Table 11 and FIG. 3.

Kv1.2 = target: T1, Kv1.2 (Homo sapiens, UniProt P16389); experiment: Patch clamp assay (QPatch), Kv1.2; assay type: cell-based
T1 construct: expressed in transfected cells
T1 sequence (P16389 whole entry): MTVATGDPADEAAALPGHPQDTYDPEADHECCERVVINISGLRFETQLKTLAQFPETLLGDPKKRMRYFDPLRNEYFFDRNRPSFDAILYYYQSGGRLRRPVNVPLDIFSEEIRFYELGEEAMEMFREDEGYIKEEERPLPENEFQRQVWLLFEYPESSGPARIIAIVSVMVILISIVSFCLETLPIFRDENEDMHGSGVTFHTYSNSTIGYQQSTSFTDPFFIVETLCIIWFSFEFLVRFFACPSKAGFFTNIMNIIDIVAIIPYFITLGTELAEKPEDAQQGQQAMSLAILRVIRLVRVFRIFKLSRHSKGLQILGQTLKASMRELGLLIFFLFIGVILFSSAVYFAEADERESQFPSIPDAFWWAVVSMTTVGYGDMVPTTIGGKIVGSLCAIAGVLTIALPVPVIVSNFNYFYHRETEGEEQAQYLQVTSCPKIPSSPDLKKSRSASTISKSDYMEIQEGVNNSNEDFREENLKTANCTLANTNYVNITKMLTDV

Substance: H-P[Nle]E[Nle]RC(1)SASVEC(2)KQKC(3)LAAIGSIFGKC(1)[Nle]NKKC(2)KC(3)YPR-OH [Peptide 100]
- Mean ear thickness of KLH-induced ear ([1]; 1 nmol/kg s.c., challenge day 11, 24 hrs post-challenge, vehicle 0.902, p=0.0872): 0.872±0.037 mm
- Mean ear thickness of KLH-induced ear ([1]; 1 nmol/kg s.c., challenge day 11, 48 hrs post-challenge, vehicle 0.876, p=0.1953): 0.854±0.038 mm
- Mean ear thickness of KLH-induced ear ([1]; 3 nmol/kg s.c., challenge day 11, 24 hrs post-challenge, vehicle 0.902, p<0.0001): 0.814±0.014 mm
- Mean ear thickness of KLH-induced ear ([1]; 3 nmol/kg s.c., challenge day 11, 48 hrs post-challenge, vehicle 0.876, p=0.0001): 0.814±0.019 mm
- Mean ear thickness of KLH-induced ear ([1]; 10 nmol/kg s.c., challenge day 11, 24 hrs post-challenge, vehicle 0.902, p<0.0001): 0.796±0.043 mm
- Mean ear thickness of KLH-induced ear ([1]; 10 nmol/kg s.c., challenge day 11, 48 hrs post-challenge, vehicle 0.876, p=0.0001): 0.794±0.036 mm
- Mean ear thickness of KLH-induced ear ([1]; 30 nmol/kg s.c., challenge day 11, 24 hrs post-challenge, vehicle 0.902, p<0.0001): 0.754±0.017 mm
- Mean ear thickness of KLH-induced ear ([1]; 30 nmol/kg s.c., challenge day 11, 48 hrs post-challenge, vehicle 0.876, p<0.0001): 0.736±0.03 mm
- Mean ear thickness of KLH-induced ear ([1]; 100 nmol/kg s.c., challenge day 11, 24 hrs post-challenge, vehicle 0.902, p<0.0001): 0.751±0.009 mm
- Mean ear thickness of KLH-induced ear ([1]; 100 nmol/kg s.c., challenge day 11, 48 hrs post-challenge, vehicle 0.876, p<0.0001): 0.731±0.016 mm
- Mean ear thickness of KLH-induced ear ([1]; 24 hrs post-challenge, day 2 post-treatment, 100 nmol/kg SC): 0.736 mm
- Mean ear thickness of KLH-induced ear ([1]; 24 hrs post-challenge, day 6 post-treatment, 1 nmol/kg SC): 0.872 mm
- Mean ear thickness of KLH-induced ear ([1]; 24 hrs post-challenge, day 6 post-treatment, 3 nmol/kg SC): 0.814 mm
- Mean ear thickness of KLH-induced ear ([1]; 24 hrs post-challenge, day 6 post-treatment, 10 nmol/kg SC): 0.796 mm
- Mean ear thickness of KLH-induced ear ([1]; 24 hrs post-challenge, day 6 post-treatment, 30 nmol/kg SC): 0.754 mm
- Mean ear thickness of KLH-induced ear ([1]; 24 hrs post-challenge, day 6 post-treatment, 100 nmol/kg SC): 0.751 mm
- Mean ear thickness of KLH-induced ear ([1]; 48 hrs post-challenge, day 3 post-treatment, 100 nmol/kg SC): 0.671 mm
- Mean ear thickness of KLH-induced ear ([1]; 48 hrs post-challenge, day 7 post-treatment, 1 nmol/kg SC): 0.854 mm
- Mean ear thickness of KLH-induced ear ([1]; 48 hrs post-challenge, day 7 post-treatment, 3 nmol/kg SC): 0.814 mm
- Mean ear thickness of KLH-induced ear ([1]; 48 hrs post-challenge, day 7 post-treatment, 10 nmol/kg SC): 0.794 mm
- Mean ear thickness of KLH-induced ear ([1]; 48 hrs post-challenge, day 7 post-treatment, 30 nmol/kg SC): 0.736 mm
- Mean ear thickness of KLH-induced ear ([1]; 48 hrs post-challenge, day 7 post-treatment, 100 nmol/kg SC): 0.731 mm
- minimal dose to obtain effect ([1]; KLH-induced DTH model, s.c.): 3 nmol/kg
- Mean ear thickness of KLH-induced ear ([1]; s.c. day 6, dose not given, challenge day 7, 24 hrs post-challenge, vehicle 0.849, p<0.0001): 0.736±0.026 mm
- Mean ear thickness of KLH-induced ear ([1]; s.c. day 6, dose not given, challenge day 7, 48 hrs post-challenge, vehicle 0.777, p<0.0001): 0.671±0.022 mm
- effect on KLH-induced ear swelling / inflammation ([2]; 300 nmol/kg on day 6, challenges on days 7, 9 and 11, in words): reduced KLH-induced ear swelling after challenges on days 7, 9 and 11
- Mean ear thickness of KLH-induced ear ([2]; 300 nmol/kg s.c. day 6, challenge day 7, 24 hrs post-challenge (2 days post-treatment), vehicle 0.796, p<0.0001): 0.676±0.017 mm
- Mean ear thickness of KLH-induced ear ([2]; 300 nmol/kg s.c. day 6, challenge day 7, 48 hrs post-challenge (3 days post-treatment), vehicle 0.733, p<0.0001): 0.623±0.015 mm
- Mean ear thickness of KLH-induced ear ([2]; 300 nmol/kg s.c. day 6, challenge day 9, 24 hrs post-challenge (4 days post-treatment), vehicle 0.761, p=0.0011): 0.689±0.031 mm
- Mean ear thickness of KLH-induced ear ([2]; 300 nmol/kg s.c. day 6, challenge day 9, 48 hrs post-challenge (5 days post-treatment), vehicle 0.729, p=0.0002): 0.659±0.034 mm
- Mean ear thickness of KLH-induced ear ([2]; 300 nmol/kg s.c. day 6, challenge day 11, 24 hrs post-challenge (6 days post-treatment), vehicle 0.784, p<0.0001): 0.681±0.023 mm
- Mean ear thickness of KLH-induced ear ([2]; 300 nmol/kg s.c. day 6, challenge day 11, 48 hrs post-challenge (7 days post-treatment), vehicle 0.746, p<0.0001): 0.653±0.013 mm
- Mean ear thickness of KLH-induced ear ([2]; 300 nmol/kg s.c. day 6, challenge day 13, 24 hrs post-challenge (8 days post-treatment), vehicle 0.767, p=0.0696, not significant): 0.729±0.038 mm
- Mean ear thickness of KLH-induced ear ([2]; 300 nmol/kg s.c. day 6, challenge day 13, 48 hrs post-challenge (9 days post-treatment), vehicle 0.720, p=0.2256, not significant): 0.699±0.028 mm
- Mean ear thickness of KLH-induced ear ([2]; measured 48 hrs post-challenge, day 3 post-treatment, 300 nmol/kg SC): 0.623 mm
- Mean ear thickness of KLH-induced ear ([2]; measured 48 hrs post-challenge, day 5 post-treatment, 300 nmol/kg SC): 0.659 mm
- Mean ear thickness of KLH-induced ear ([2]; measured 48 hrs post-challenge, day 7 post-treatment, 300 nmol/kg SC): 0.653 mm
- Mean ear thickness of KLH-induced ear ([2]; measured 48 hrs post-challenge, day 9 post-treatment, 300 nmol/kg SC): 0.699 mm
- IC50 (Kv1.2; QPatch, CHO cells stably expressing human Kv1.2, read-out: Potency IC50, Kv1.2): 1.12 µM
- Selectivity Kv1.2/Kv1.3 (Kv1.2; ratio of IC50 Kv1.2/Kv1.3): 3384
